Measured values from a melting point compilation (Tetko et al.; mined from patent text by program, amines drawn as free bases though some values may be those of a salt).

| SMILES | melting point |
| --- | --- |
| N#Cc1cc(-c2cc(C(F)F)c3c(-c4cccnc4)nn(C4CCCCO4)c3n2)ccc1N (stereo not given) | 140 °C |
| CC(=NN)c1ccc2c(c1)C(C(Cl)(Cl)Cl)OC(C(Cl)(Cl)Cl)O2 (stereo not given) | 159 °C |
| COC(=O)c1ccc(C(N)=O)cc1Cl | 154 to 156 °C |
| COC1=C(C#N)C(=O)N(C)C1=O | 123 to 125 °C |
| Cc1cc(N2N=CCNC2=O)cc(Cl)c1C(C#N)c1cnc(Cl)s1 (stereo not given) | 238 to 239 °C |
| Clc1ccc2nc(Cl)oc2c1 | 40 to 44 °C |
| CCOC(=O)c1sc(N2CCN(CC3CC3(F)F)C2=O)nc1C (stereo not given) | 146 to 148 °C |
| COC(=O)NN=Cc1nc(-c2cccc(C(F)(F)F)c2)[nH]c1C | 251 to 252 °C |
| N#CN=CNc1nc(OCc2ccc(F)cc2)ncc1F | 148 to 149 °C |
| CCn1c(-c2ccc(C(F)(F)F)cc2C(F)(F)F)nc(-c2ccncc2)c1-c1ccc(Cl)cc1 | 148 to 150 °C |
| CC1(COc2ccc(Cc3nnn[nH]3)cc2)CCCCC1O (stereo not given) | 103 to 108 °C |
| COc1ccc(C(=C(C)C(=O)O)c2ccc(OC)cc2)cc1 | 134 to 135 °C |
| CS(=O)(=O)c1ccc(N2CC=C(N3CCCC3)CC2)cc1 | 141 to 143 °C |
| CCCNC1=NS(=O)(=O)c2cc([N+](=O)[O-])ccc2N1 | 268 to 270 °C |
| CN(C)Cc1nnc(CO)n1-c1ccc(Cl)cc1C(=O)c1ccccc1 | 138 to 141 °C |
| O=C(c1cccs1)c1cnn2c(-c3cccc(NC(=O)C4CCNCC4)c3)ccnc12 | 159 to 161 °C |
| CC(=O)c1cc(C(N)=O)cs1 | 156 to 158 °C |
| CC(C)OC(=O)c1cc(N=C=O)c(F)cc1Cl | 41 to 43 °C |
| CNC(=C[N+](=O)[O-])NCCSCC1(OC)C=CC=NC1 (stereo not given) | 146 to 147 °C |
| O=C(O)COc1ccc(C2=CC(=O)CCC2)c(Cl)c1Cl | 197 to 198 °C |
| Cc1nc(-c2ccc(C(F)(F)F)cc2)oc1COc1ccc(CC(=O)O)cc1Cl | 189 to 191 °C |
| O=C1N(Cc2ncccc2C(F)(F)F)c2c(F)cccc2C12COc1cc3c(cc12)OCCO3 (stereo not given) | 241 to 243 °C |
| Cc1cc(NS(=O)(=O)c2n[nH]c(NC=O)n2)ccc1Br | 282 to 284 °C |
| OCC1OC(n2cnc3c(Nc4ccccc4)ccnc32)C(O)C1O (stereo not given) | 189 °C |
| O=C(Cl)c1cn(CCCCl)c(=O)c2cc(Cl)ccc12 | 125 °C |
| O=S1(=O)CC(c2ccc(F)cc2)CN1 (stereo not given) | 155 °C |

The next lines start with the values.

| melting point | SMILES |
| --- | --- |
| 185 to 186 °C | CCCOc1ccccc1-c1nc2nc(NCCCO)ncc2c(=O)[nH]1 |
| 145 to 146 °C | CCCCCCCCC(c1ccccc1)S(=O)(=O)NC(=O)Nc1c(C(C)C)cccc1C(C)C (stereo not given) |
| 202 to 204 °C | Cc1ccc2c(NN)ccnc2c1NC(=O)c1c(Cl)cccc1Cl |
| 202 °C | COc1ccc2oc3ccccc3c2c1C(=O)Nc1cc(Cl)ccc1Cl |
| 120 °C | CC#CCOc1ccc(S(=O)(=O)C(CCCCCC#N)C(=O)NO)cc1 (stereo not given) |
| 238 to 239 °C | COC1CN(C(=O)c2cc(-c3ccccc3)c(=O)n3c2-c2cc(Cl)ccc2CN3)C1 |
| 135 to 137 °C | O=C1CCN=C(c2ccccc2Cl)c2ccccc21 |
| 212 to 214 °C | O=C(O)c1cccc2cc(-c3ccccc3)oc12 |
| 71 to 76 °C | COC(=O)CCCC#Cc1cc(Cl)ccc1NS(=O)(=O)c1cccc(OC)c1 |
| 149 to 151 °C | O=C(CC(c1ccccc1)c1ccccc1)NCO |
| 36 to 37 °C | CCCCCCCC[C@H]1CC[C@H](C(=O)O)CC1 |
| 181 °C | CC(C)(C)OC(=O)NCCCCC(=O)Nc1ccc(O)c(C(=O)O)c1 |
| 157 to 159 °C | COc1cccc(CCc2c(CCNC(=O)CCCCC(=O)NCCc3ccc(NS(C)(=O)=O)cc3)ccc(OC)c2OC)c1 |
| 173 to 174 °C | O=c1[nH]c2cccc(OCCN3CCc4ccccc4C3)c2[nH]1 |
| 64 to 65 °C | COc1c2c(c(OC)c(OC)c1OC)CC(CCCCCCCCN1C(=O)c3ccccc3C1=O)C2 |
| 189 to 190 °C | CNC(=O)Oc1ccc2c(c1)c1c(n2C)C2(CC1)CCN(C(=O)c1ccccc1)CC2 |
| 222 to 224 °C | CC(=O)Nc1ccc(S(=O)(=O)Nc2ccn(CC3CC3)c(=O)n2)cc1 |
| 108 to 117 °C | CN(CC(O)[C@H](Cc1ccccc1)NC(=O)c1ccccc1)C(=O)N1CCC[C@H]1C(=O)O (stereo not given in full) |
| 30 to 35 °C | NCCCOc1ccc(-c2nnc(CSCCOc3ccccc3)o2)cc1 |
| 155 to 158 °C | CC(C(=O)O)c1ccc2c(c1)C(=O)c1ccccc1CN2C (stereo not given) |
| 101 to 103 °C | C#CC[C@H](c1nc2cc(Cl)ccc2c(=O)n1Nc1ccccc1)N(CCCN)C(=O)c1cccc(Cl)c1F |
| 117 to 119 °C | O=S(=O)(Nc1cccc(CCOCc2csc(-c3ccc(C(F)(F)F)cc3)n2)c1)C(F)(F)F |
| 59 to 64 °C | CSCC[C@H](NC(=O)[C@@H]1CS[C@H](c2ccccc2O)N1C(=O)CCSC(C)=O)C(=O)O |
| 54 to 60 °C | CCc1cc2c(SCc3ccccc3)ncnc2s1 |
